This test has as its system HCT116. Conditions: 72 h. The method, boiled down: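 For IC50 and maximal efficacy, four-parameter Hill fits were used. Input values were CellTiter-Glo luminescence from HCT116 cells seeded at 250 per well in 1536-well plates, normalized to vehicle (0%) and positive control (-100%). Pattern correction followed normalization.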

Structures can show the parent of a compound that is named as a salt.

Regarding `CCC(c1ccccc1)c1noc(CCN(CC)CC)n1` (stereo not given) [Proxazole citrate], the IC50 cell viability (ICRF193 0 nM) was > 45.8 µM and the IC50 cell viability (ICRF193 200 nM) is > 45.8 µM.
For the compound `C#C[C@]1(O)CC[C@H]2[C@@H]3[C@H](C)CC4=C(CCC(=O)C4)[C@H]3CC[C@@]21C` [Tibolone], the IC50 cell viability reads like this: (ICRF193 0 nM) > 45.8 µM; (ICRF193 200 nM) > 45.8 µM.
Regarding `C[C@]12CC[C@H](OS(=O)(=O)O)CC1=CC[C@@H]1[C@@H]2CC[C@]2(C)C(=O)CC[C@@H]12` [Dehydroepiandrosterone Sulfate (sodium salt)], the IC50 cell viability runs as follows: (ICRF193 0 nM) > 45.8 µM; (ICRF193 200 nM) > 45.8 µM.
Regarding `CC(C)=CCC/C(C)=C/CO` [Geraniol], the IC50 cell viability is > 45.8 µM (ICRF193 0 nM) and > 45.8 µM (ICRF193 200 nM).
Turning to `CCOc1ccc2nc(S(N)(=O)=O)sc2c1` [Ethoxzolamide], the IC50 cell viability is > 45.8 µM (ICRF193 0 nM) and > 45.8 µM (ICRF193 200 nM).
For the compound `O=C(O)CN(CCN(CC(=O)O)CC(=O)O)CCN(CC(=O)O)CC(=O)O` [Pentetic acid], the IC50 cell viability reads like this: (ICRF193 0 nM) > 45.8 µM; (ICRF193 200 nM) > 45.8 µM.
Regarding `CCOC(=O)NNc1ccc(N(CC)CC(C)O)nn1` (stereo not given) [Cadralazine], the IC50 cell viability (ICRF193 0 nM) was > 45.8 µM and the IC50 cell viability (ICRF193 200 nM) is > 45.8 µM.
For `CC(C)(C)C(=O)C(Oc1ccc(Cl)cc1)n1ccnc1` (stereo not given) [Climbazole], the IC50 cell viability (ICRF193 0 nM) was > 45.8 µM and the IC50 cell viability (ICRF193 200 nM) is > 45.8 µM.
For the compound `CC#CCC(C)[C@H](O)/C=C/[C@@H]1[C@H]2c3cccc(CCCC(=O)O)c3O[C@H]2C[C@H]1O` (mixture of isomers) [Beraprost sodium], the IC50 cell viability runs as follows: (ICRF193 0 nM) > 45.8 µM; (ICRF193 200 nM) > 45.8 µM.
Regarding `Cc1ccc([C@@H]2O[C@H](CO)[C@@H](O)[C@H](O)[C@H]2O)cc1Cc1ccc(-c2ccc(F)cc2)s1` [Canagliflozin], the IC50 cell viability reads like this: (ICRF193 0 nM) > 45.8 µM; (ICRF193 200 nM) > 45.8 µM.
As for `CCCCCCCCCC(=O)OCCN1CCN(CC/C=C2\c3ccccc3Sc3ccc(C(F)(F)F)cc32)CC1` [FLUPENTIXOL DECANOATE], the IC50 cell viability (ICRF193 0 nM) is > 45.8 µM and the IC50 cell viability (ICRF193 200 nM) was > 45.8 µM.
For the compound `c1ccc(C2(c3ccccc3)CC2C2=NCCN2)cc1` (stereo not given) [Cibenzoline succinate], the IC50 cell viability is > 45.8 µM (ICRF193 0 nM) and > 45.8 µM (ICRF193 200 nM).
As for `CC(C)(C)NCC(O)c1cc(Cl)c(N)c(Cl)c1` (stereo not given) [Clenbuterol], the IC50 cell viability was > 45.8 µM (ICRF193 0 nM) and > 45.8 µM (ICRF193 200 nM).
With `COP(=O)(OC)OC=C(Cl)Cl` [Dichlorvos], the IC50 cell viability is, setting by setting: (ICRF193 0 nM) > 45.8 µM; (ICRF193 200 nM) > 45.8 µM.
Take `Cc1ccc(S(=O)(=O)NC(=O)NN2CC3CCCC3C2)cc1` (stereo not given) [Gliclazide]: the IC50 cell viability was > 45.8 µM (ICRF193 0 nM) and > 45.8 µM (ICRF193 200 nM).
On to `Nc1nc(NC2CC2)c2ncn([C@H]3C=C[C@@H](CO)C3)c2n1` [ABACAVIR SULFATE], for which the IC50 cell viability was > 45.8 µM (ICRF193 0 nM) and > 45.8 µM (ICRF193 200 nM).
Regarding `CC(CC(C(N)=O)(c1ccccc1)c1ccccc1)N(C)C` (stereo not given) [Aminopentamide sulfate], the IC50 cell viability runs as follows: (ICRF193 0 nM) > 45.8 µM; (ICRF193 200 nM) > 45.8 µM.
`CC(/C=C/C=C(\C)C(=O)O[C@@H]1O[C@H](CO[C@@H]2O[C@H](CO)[C@@H](O)[C@H](O)[C@H]2O)[C@@H](O)[C@H](O)[C@H]1O)=C\C=C\C=C(C)\C=C\C=C(/C)C(=O)O[C@@H]1O[C@H](CO[C@@H]2O[C@H](CO)[C@@H](O)[C@H](O)[C@H]2O)[C@@H](O)[C@H](O)[C@H]1O` [Crocin?]: the IC50 cell viability reads like this: (ICRF193 0 nM) > 45.8 µM; (ICRF193 200 nM) > 45.8 µM.
Take `CCCCCCCCCCCCOCCO` [2-(Dodecyloxy)ethanol]: the IC50 cell viability (ICRF193 0 nM) was > 45.8 µM and the IC50 cell viability (ICRF193 200 nM) is > 45.8 µM.
For `CCCCN(CCCC)C(=S)[S-].CCCCN(CCCC)C(=S)[S-].[Zn+2]` [Zinc dibutyldithiocarbamate], the IC50 cell viability was > 45.8 µM (ICRF193 0 nM) and > 45.8 µM (ICRF193 200 nM).
Take `COP(=S)(OC)Oc1ccc(S(=O)(=O)N(C)C)cc1` [Famphur]: the IC50 cell viability was > 45.8 µM (ICRF193 0 nM) and > 45.8 µM (ICRF193 200 nM).
Regarding `O=C1OCCN1/N=C/c1ccc([N+](=O)[O-])o1` [Furazolidone], the IC50 cell viability reads like this: (ICRF193 0 nM) > 45.8 µM; (ICRF193 200 nM) > 45.8 µM.
`CC(C)(C)NC[C@H](O)COc1nsnc1N1CCOCC1` [(S)-Timolol]: the IC50 cell viability by setting is: (ICRF193 0 nM) > 45.8 µM; (ICRF193 200 nM) > 45.8 µM.
For the compound `C[C@]12CCC(=O)C=C1CC[C@@H]1[C@@H]2[C@@H](O)C[C@@]2(C)[C@H]1CC[C@]2(O)C(=O)COP(=O)(O)O` [Hydrocortisone Sodium Phosphate], the IC50 cell viability is > 45.8 µM (ICRF193 0 nM) and > 45.8 µM (ICRF193 200 nM).
As for `CC(=O)O[C@]1(C(C)=O)CC[C@H]2[C@@H]3C[C@H](C)C4=CC(=O)CC[C@]4(C)[C@H]3CC[C@@]21C` [Medroxyprogesterone acetate], the IC50 cell viability was > 45.8 µM (ICRF193 0 nM) and > 45.8 µM (ICRF193 200 nM).

The values are drawn from the supplement of paper PMC12137928.
